Measured values from US3995058A, “Treatment of ethanol withdrawal symptoms with levodopa” (priority 1975, dated 1976).
Read-outs that look alike come from different tables or passages of the source.

Experiments:
parkinsonism tremor = details: in vivo; cited from earlier work
[1] = Discoordination: ability to remain for 1 minute on a rotating drum; details: mouse, in vivo; for TD50 at 1 h: po
Method: (§1) Male T/O mice were habituated to ethanol by oral administration of aqueous ethanol solutions over three days. Ethanol was administered as a 40% w/v solution, the animals receiving 4 g/kg on the first day, 5 g/kg on the second day and 6 g/kg on the third day. Twenty-four hours after the third dose, approximately 12 hours after blood ethanol had fallen to zero, mice were observed over a period of 4 minutes in groups of five and the number of head-twitches were recorded for each animal. All animals received two doses of levodopa or vehicle, one 6 hours after the last dose of ethanol and the other one hour before observation of the animals. The amount of discoordination produced by each treatment was also determined by measuring the animals' ability to remain for 1 minute on a drum, 30 cm diameter, rotating at a speed of 1 rpm. Using a quantal method the median effective dose (ED50) to suppress head-twitches was determined. […] The ratio FD50 to ED50 gives the therapeutic ratio.
(§2) occasion. The dose of each drug to discoordinate 50% of the animals (FD
(§3) 50) was compared with the dose that reduced to 50% the proportion of mice

[2] = Therapeutic ratio FD50/ED50 (discoordination against head-twitches); details: mouse, in vivo
Method: as §1, §2, §3
(§4) showing head-twitches (ED 50).

[3] = test system: ethanol withdrawal head-twitches; assay: Suppression of ethanol withdrawal head-twitches in mice habituated to ethanol; assay type: in vivo, mice (male T/O); details: for ED50: Mus musculus; for suppression of head-twitches: mice undergoing ethanol withdrawal
Method: as §1
All drugs given one hour before observation except noradrenaline (35
minutes). Doses are expressed as mg/kg orally (P.O.), subcutaneously
(S.C.) or intracerebrally (I.C.V.). *Animals in levodopa experiment
received two doses of levodopa or vehicle, the first being given six hour
after the last dose of ethanol, the second one hour before observation.
The values indicated are computed from the doses of levodopa given on eac
as §2, §3, §4

[4] = test system: delirium tremors or seizures; details: severe cases of physical dependence; cited from earlier work
discoordination = assay: Discoordination: ability to remain for 1 minute on a rotating drum; details: mouse, in vivo
Method: as §1, §2, §3

brain catecholamines = details: increasing doses of levodopa; cited from earlier work
depression = details: in vivo; cited from earlier work
sleep = details: cited from earlier work
withdrawal symptoms = assay: Production of withdrawal symptoms; details: in vivo

## NC(CO)C(=O)NNCc1cc(O)c(O)c(O)c1 (racemic) [N'-(D,L-seryl)-N"-(3,4,5-trihydroxybenzyl)-hydrazine]
Parkinsonism tremor
  control of parkinsonism tremor: useful in the control of parkinsonism tremor

## CCCC(C)C1(CC)C(=O)NC(=O)NC1=O (centres unmarked) [Pentobarbitone sodium]
[1]
  TD50 at 1 h: 91 mg/kg
[2]; po
  selectivity ratio: 0.4
[3]; po, 1 h, read-out: ED 50 value to reduce head-twitches (with 95% fiducial limits)
  ED50: 231 mg/kg

## CN(C)CCCN1c2ccccc2Sc2ccc(Cl)cc21 [chlorpromazine]
[4]
  prevention of delirium tremors or seizures: ineffective to prevent delirium tremors or seizures

## N[C@@H](Cc1ccc(O)c(O)c1)C(=O)O [L-DOPA, L-β-3,4-dihydroxyphenylalanine]
discoordination
  animals discoordinated: none of the animals were discoordinated
[1]
  TD50 at 1 h: > 800 mg/kg
[2]; po
  selectivity ratio: 3.5
[3]; po, P.O.*, two doses: 6 h after last ethanol and 1 h before observation, per-occasion dose, limits 63-1213, read-out: ED 50 value to reduce head-twitches (with 95% fiducial limits)
  ED50: 232 mg/kg
[3]; po, levodopa, text of summary, read-out: median effective dose (ED50) required to prevent or suppress withdrawal symptoms
  ED50: 231 mg/kg
Brain catecholamines
  shift of brain catecholamine levels: increasing shift of brain levels from dopamine to noradrenaline
depression
  therapeutic use in the treatment of depression: of questionable value
sleep; increasing numbers of doses
  effect on sleeping time with repeated doses: this effect became smaller with increasing numbers of doses
sleep; single dose 400 mg/kg
  increase in sleeping time: three-fold increase in sleeping time

## NC[C@H](O)c1ccc(O)c(O)c1 [Noradrenaline]
[1]; icv or intrathecal
  TD50 at 35 min: > 0.01 mg/kg
[2]
  selectivity ratio: > 3.3
[3]; central, 35 min, I.C.V., 35 minutes before observation, read-out: ED 50 value to reduce head-twitches (with 95% fiducial limits)
  ED50: 0.003 mg/kg
[3]; intracerebral injection
  suppression of head-twitches: complete suppression of head-twitches

## CCO [Ethanol, ethanol]
[1]
  TD50 at 1 h: 2500 mg/kg
[2]; po
  selectivity ratio: 0.6
[3]; po, 1 h, P.O., one hour before observation, read-out: ED 50 value to reduce head-twitches (with 95% fiducial limits)
  ED50: 3990 mg/kg

## CC(N)(Cc1ccc(O)cc1)C(=O)O (stereo not drawn) [α-methyl p-tyrosine]
Withdrawal symptoms
  withdrawal symptoms produced: produces withdrawal symptoms that can be reduced by anti-serotonin agents

## CC(Cc1ccc(O)c(O)c1)(NN)C(=O)O (stereo not drawn) [α-methyl-dopa hydrazine]
Parkinsonism tremor
  control of parkinsonism tremor: useful in the control of parkinsonism tremor

## CN(C)CCCN1c2ccccc2Sc2ccccc21 [promazine]
[4]
  prevention of delirium tremors or seizures: ineffective to prevent delirium tremors or seizures

## CC(N)Cc1ccccc1.O=S(=O)(O)O (centres unmarked) [Amphetamine sulphate]
[3]; sc, 1 h, read-out: ED 50 value to reduce head-twitches (with 95% fiducial limits)
  ED50: 7.18 mg/kg
[3]; subcutaneously
  suppression of head-twitches: complete suppression of head-twitches
